Drawing on US9533952B2, “N-prop-2-ynyl carboxamide derivatives and their use as TRPA1 antagonists” (Orion Corporation, priority 2012, dated 2017), this text covers IC50 for 46 compounds.

Structures are written as SMILES.

Broadly, the IC50 is the concentration at which inhibition is half-maximal. Read a high IC50 as lower potency.

The target in the experiment is TRPA1 (Homo sapiens, UniProt O75762). In words: Determination of TRPA1 activity in vitro (TRPA1 antagonism in vitro). The format is cell-based. As to conditions: procedure of Wei et al., Anesthesiology 111 (2009) 147-154.
TRPA1, sequence (O75762 whole entry): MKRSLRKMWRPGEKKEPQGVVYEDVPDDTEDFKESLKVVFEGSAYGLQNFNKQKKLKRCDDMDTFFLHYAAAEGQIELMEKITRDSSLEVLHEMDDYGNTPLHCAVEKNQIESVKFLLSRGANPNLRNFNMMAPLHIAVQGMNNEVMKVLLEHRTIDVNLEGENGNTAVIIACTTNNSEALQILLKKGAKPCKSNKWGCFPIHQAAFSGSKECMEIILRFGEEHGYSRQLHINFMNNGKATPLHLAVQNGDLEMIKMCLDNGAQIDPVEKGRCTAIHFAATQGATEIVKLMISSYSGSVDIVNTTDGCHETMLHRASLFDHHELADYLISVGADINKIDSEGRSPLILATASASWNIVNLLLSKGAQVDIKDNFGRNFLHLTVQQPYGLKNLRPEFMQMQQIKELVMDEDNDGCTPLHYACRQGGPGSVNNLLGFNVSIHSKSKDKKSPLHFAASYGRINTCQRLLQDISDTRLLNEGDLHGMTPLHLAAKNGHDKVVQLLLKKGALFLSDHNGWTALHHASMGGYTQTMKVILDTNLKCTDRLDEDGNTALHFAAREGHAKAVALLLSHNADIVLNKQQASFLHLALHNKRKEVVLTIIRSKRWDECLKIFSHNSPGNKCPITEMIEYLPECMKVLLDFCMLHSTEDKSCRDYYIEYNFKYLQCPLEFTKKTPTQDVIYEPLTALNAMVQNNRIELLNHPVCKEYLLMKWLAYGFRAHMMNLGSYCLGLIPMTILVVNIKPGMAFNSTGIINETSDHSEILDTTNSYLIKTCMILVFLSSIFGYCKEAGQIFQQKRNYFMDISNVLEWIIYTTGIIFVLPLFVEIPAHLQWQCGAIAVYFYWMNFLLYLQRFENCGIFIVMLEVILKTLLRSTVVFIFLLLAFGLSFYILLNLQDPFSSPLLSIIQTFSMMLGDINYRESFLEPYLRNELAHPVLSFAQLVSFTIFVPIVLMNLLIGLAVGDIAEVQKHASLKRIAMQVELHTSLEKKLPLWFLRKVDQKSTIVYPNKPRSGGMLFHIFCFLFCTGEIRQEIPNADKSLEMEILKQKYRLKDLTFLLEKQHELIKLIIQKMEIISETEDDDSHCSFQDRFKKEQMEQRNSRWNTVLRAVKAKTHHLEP
Compound `C#CC(C)(C)NC(=O)c1cc(F)ccc1NC1CC1` [Example 91, 2-(Cyclopropylamino)-5-fluoro-N-(2-methylbut-3-yn-2-yl)benzamide] came in with a half-maximal inhibitory concentration (IC50) of 7000 nM.
`C#CC(C)(CC)NC(=O)c1cccnc1Nc1cc(F)cc(OC)c1` (stereo not shown) [Example 166, 2-(3-Fluoro-5-methoxyphenylamino)-N-(3-methylpent-1-yn-3-yl)nicotinamide] registered a concentration for half-maximal inhibition (IC50) of 600 nM.
Regarding `C#CC(C)(CC)NC(=O)c1cccnc1Nc1ccc(OC)c(Cl)c1` (stereo not shown) [Example 192, 2-(3-Chloro-4-methoxyphenylamino)-N-(3-methylpent-1-yn-3-yl)nicotinamide], half-maximal inhibition (IC50) was put at 700 nM.
Turning to `C#CC(C)(C)NC(=O)c1cccc(F)c1NCCC` [Example 16, 3-Fluoro-N-(2-methylbut-3-yn-2-yl)-2-(propylamino)benzamide], the IC50 is 10800 nM.
The result for `C#CC(C)(CC)NC(=O)c1cc(F)cnc1NCC(F)F` (stereo not shown) [Example 20, 2-(2,2-Difluoroethylamino)-5-fluoro-N-(3-methylpent-1-yn-3-yl)nicotinamide] reads 1400 nM; that for `C#CC(C)(C)NC(=O)c1cc(F)ccc1NCCCC` [Example 49, 2-(Butylamino)-5-fluoro-N-(2-methylbut-3-yn-2-yl)benzamide], 1100 nM; that for `C#CC(C)(CC)NC(=O)c1cccnc1Nc1cccc(OC)c1F` (stereo not shown) [Example 170, 2-(2-Fluoro-3-methoxyphenylamino)-N-(3-methylpent-1-yn-3-yl)nicotinamide], 4900 nM.
The same measure for `C#CC(C)(C)NC(=O)c1cnc(C(F)(F)F)nc1NC(C)C` [Example 110, 4-(Isopropylamino)-N-(2-methylbut-3-yn-2-yl)-2-(trifluoromethyl)-pyrimidine-5-carboxamide]: 12000 nM; for `C#CC(CC)(CC)NC(=O)c1cc(C(F)(F)F)ccc1NCCOC` [Example 46, N-(3-Ethylpent-1-yn-3-yl)-2-(2-methoxyethylamino)-5-(trifluoro-methyl)benzamide]: 500 nM; for `C#CC(C)(C)NC(=O)c1ccc(C(F)(F)F)nc1NCC1CCOCC1` [Example 116, N-(2-Methylbut-3-yn-2-yl)-2-((tetrahydro-2H-pyran-4-yl)methyl-amino)-6-(trifluoromethyl)nicotinamide]: 1600 nM.
For `C#CC(C)(C)NC(=O)c1cc(F)cnc1NCCC(F)(F)F` [Example 1, 5-Fluoro-N-(2-methylbut-3-yn-2-yl)-2-(3,3,3-trifluoropropylamino)-nicotinamide], the IC50 was found to be 1900 nM.
The result for `C#CC(C)(C)NC(=O)c1cccc2c(C)c(C)[nH]c12` [Example 118, 2,3-Dimethyl-N-(2-methylbut-3-yn-2-yl)-1H-indole-7-carboxamide] reads 12900 nM; that for `C#CC(C)(C)NC(=O)c1cccc(F)c1NC1CCC1` [Example 21, 2-(Cyclobutylamino)-3-fluoro-N-(2-methylbut-3-yin-2-yl)benzamide], 5200 nM; that for `C#CC(C)(C)NC(=O)c1cc(F)c(F)cc1NCCCC` [Example 42, 2-(Butylamino)-4,5-difluoro-N-(2-methylbut-3-yn-2-yl)benzamide], 500 nM.
Turning to `C#CC(C)(C)NC(=O)c1cccnc1NC1CC(F)(F)C1` [Example 133, 2-(3,3-Difluorocyclobutylamino)-N-(2-methylbut-3-yn-2-yl)nicotinamide], the IC50 came out at 5900 nM.
The same measure for `C#CC(C)(C)NC(=O)c1cc(Cl)cnc1NC1CCC1` [Example 27, 5-Chloro-2-(cyclobutylamino)-N-(2-methylbut-3-yn-2-yl)nicotinamide]: 700 nM; for `C#CC(C)(C)NC(=O)c1cccnc1NCc1cccc(OC)c1` [Example 97, 2-(3-Methoxybenzylamino)-N-(2-methylbut-3-yn-2-yl)nicotinamide]: 14000 nM; for `C#CC(C)(CC)NC(=O)c1cccnc1Nc1cc(Cl)cc(OC)c1` (stereo not shown) [Example 168, 2-(3-Chloro-5-methoxyphenylamino)-N-(3-methylpent-1-yn-3-yl)nicotinamide]: 800 nM.
In turn, `C#CC(CC)(CC)NC(=O)c1cc(F)c(F)cc1NCCOC` [Example 45, N-(3-Ethylpent-1-yn-3-yl)-4,5-difluoro-2-(2-methoxyethylamino)-benzamide] registered a half-inhibitory concentration (IC50) of 2000 nM. Compared with the last compound, the IC50 is about 2.5-fold higher.
For `C#CC(C)(C)NC(=O)c1cccnc1Nc1cc(Cl)cc(OC)c1` [Example 167, 2-(3-Chloro-5-methoxyphenylamino)-N-(2-methylbut-3-yn-2-yl)nicotinamide], 3200 nM corresponded to half-maximal inhibition (IC50).
Consider `C#CC(C)(C)NC(=O)c1cccnc1Nc1ccc(OC)c(Cl)c1` [Example 150, 2-(3-Chloro-4-methoxyphenylamino)-N-(2-methylbut-3-yn-2-yl)nicotinamide], for which it took 1900 nM to reach half-maximal inhibition (IC50).
`C#CC(C)(C)NC(=O)c1cc(Cl)cnc1NCCOCC` [Example 148, 5-Chloro-2-(2-ethoxyethylamino)-N-(2-methylbut-3-yn-2-yl)nicotinamide] displayed an IC50 of 14900 nM.
The compound `C#CC(C)(C)NC(=O)c1cc(C(F)(F)F)cnc1NCC(F)F` [Example 56, 2-(2,2-Difluoroethylamino)-N-(2-methylbut-3-yn-2-yl)-5-(trifluoromethyl)nicotinamide] came in with a half-maximal inhibitory concentration (IC50) of 1600 nM.
For the compound `C#CC(C)(C)NC(=O)c1cc(F)ccc1NC1CCC1` [Example 24, 2-(Cyclobutylamino)-5-fluoro-N-(2-methylbut-3-yn-2-yl)benzamide], the IC50 amounted to 1300 nM.
The same measure for `C#CC(C)(C)NC(=O)c1cc(OC)ccc1NCCCC(F)(F)F` [Example 96, 5-Methoxy-N-(2-methylbut-3-yn-2-yl)-2-(4,4,4-trifluorobutylamino)-benzamide]: 3700 nM; for `C#CC(C)(C)NC(=O)c1cc(F)c(F)cc1NCCC(F)(F)F` [Example 66, 4,5-Difluoro-N-(2-methylbut-3-yn-2-yl)-2-(3,3,3-trifluoropropylamino)-benzamide]: 900 nM; for `C#CC(C)(C)NC(=O)c1cc(F)cnc1NCC(C)C` [Example 51, 5-Fluoro-2-(isobutylamino)-N-(2-methylbut-3-yn-2-yl)nicotinamide]: 2200 nM.
The same measure for `C#CC(C)(C)NC(=O)c1cc(F)cnc1NCC(C)(F)F` [Example 57, 2-(2,2-Difluoropropylamino)-5-fluoro-N-(2-methylbut-3-yn-2-yl)nicotinamide]: 4700 nM; for `C#CC(C)(CC)NC(=O)c1cc(F)cnc1Nc1cccc(C#N)c1` (stereo not shown) [Example 178, 2-(3-Cyanophenylamino)-5-fluoro-N-(3-methylpent-1-yn-3-yl)nicotinamide]: 900 nM; for `C#CC(C)(C)NC(=O)c1cccnc1NCCc1ccccc1` [Example 142, N-(2-Methylbut-3-yn-2-yl)-2-(phenethylamino)nicotinamide]: 5800 nM.
The same measure for `C#CC(C)(C)NC(=O)c1cc(OCC)ccc1NCCC` [Example 154, 5-Ethoxy-N-(2-methylbut-3-yn-2-yl)-2-(propylamino)benzamide]: 7100 nM.
Turning to `C#CC(C)(NC(=O)c1cc(F)c(F)cc1NCC(C)C)C(C)C` (stereo not shown) [Example 69, N-(3,4-Dimethylpent-1-yn-3-yl)-4,5-difluoro-2-(isobutylamino)-benzamide], the IC50 came to 300 nM.
`C#CC(C)(C)NC(=O)c1ccccc1NCC(F)(F)C(F)(F)F` [Example 19, N-(2-Methylbut-3-yn-2-yl)-2-(2,2,3,3,3-pentafluoropropylamino)-benzamide]: the half-maximal inhibitory concentration (IC50) came out at 500 nM.
In turn, `C#CC(C)(C)NC(=O)c1cnccc1Nc1ccc(Cl)cc1` [Example 159, 4-(4-Chlorophenylamino)-N-(2-methylbut-3-yn-2-yl)nicotinamide] had an IC50 of 11400 nM.
In turn, `C#CC(C)(C)NC(=O)c1cc(F)cc(F)c1NCCC(F)(F)F` [Example 55, 3,5-Difluoro-N-(2-methylbut-3-yn-2-yl)-2-(3,3,3-trifluoropropylamino)-benzamide] had an IC50 of 1700 nM. Compared with the last compound, the IC50 is about 6.7-fold lower.
In the case of `C#CC(C)(C)NC(=O)c1cc(Cl)cnc1NCC(C)(F)F` [Example 59, 5-Chloro-2-(2,2-difluoropropylamino)-N-(2-methylbut-3-yn-2-yl)nicotinamide], the IC50 came out at 2300 nM. This IC50 and that of the compound before are within 1.5-fold of each other.
Take `C#CC(C)(C)NC(=O)c1cc(F)cnc1NC(C)(C)C` [Example 162, 2-(tert-Butylamino)-5-fluoro-N-(2-methylbut-3-yn-2-yl)nicotinamide]: half-maximal inhibition (IC50) required 3700 nM.
In the case of `C#CC(C)(NC(=O)c1cc(F)c(F)cc1NCC)C(C)C` (stereo not shown) [Example 87, N-(3,4-Dimethylpent-1-yn-3-yl)-2-(ethylamino)-4,5-difluorobenzamide], the IC50 is 600 nM.
The same measure for `C#CC(C)(C)NC(=O)c1cccnc1Nc1ccccc1F` [Example 122, 2-(2-Fluorophenylamino)-N-(2-methylbut-3-yn-2-yl)nicotinamide]: 4800 nM.
Consider `C#CC(C)(CC)NC(=O)c1cccnc1Nc1ccc(F)c(F)c1` (stereo not shown) [Example 195, 2-(3,4-Difluorophenylamino)-N-(3-methylpent-1-yn-3-yl)nicotinamide], for which inhibition was half-maximal at 100 nM (IC50).
For `C#CC(C)(C)NC(=O)c1cc(Cl)ccc1NC(C)C` [Example 4, 5-Chloro-2-(isopropylamino)-N-(2-methylbut-3-yn-2-yl)benzamide], the IC50 was determined as 4700 nM.
In turn, `C#CC(C)(C)NC(=O)c1ccccc1NCC(C)C` [Example 80, 2-(Isobutylamino)-N-(2-methylbut-3-yn-2-yl)benzamide] had an IC50 of 1300 nM.
The result for `C#CC(C)(C)NC(=O)c1ccncc1Nc1ccc(Cl)cc1` [Example 134, 3-((4-Chlorophenyl)amino)-N-(2-methylbut-3-yn-2-yl)isonicotinamide] reads 4300 nM; that for `C#CC(C)(CC)NC(=O)c1cccnc1Nc1cccc(F)c1` (stereo not shown) [Example 184, 2-(3-Fluorophenylamino)-N-(3-methylpent-1-yn-3-yl)nicotinamide], 200 nM.
As for `C#CC(C)(C)NC(=O)c1cccnc1Nc1cc(OC)ccc1F` [Example 179, 2-(2-Fluoro-5-methoxyphenylamino)-N-(2-methylbut-3-yn-2-yl)nicotinamide], the IC50 came out at 10800 nM.
The result for `C#CC(C)(C)NC(=O)c1ccc(C#N)cc1NC1CCC1` [Example 37, 4-Cyano-2-(cydclobutylamino)-N-(2-methylbut-3-yn-2-yl)benzamide] reads 3200 nM.
